Reference: ChEMBL document CHEMBL3885881, “DrugMatrix”

Species: Rattus norvegicus
Assay: DrugMatrix - Regimen: Daily Repeat
Assay type: toxicity, organism-based, Sprague-Dawley
Parameters: regimen Daily Repeat, gender Male, age 6-8 weeks
Conditions: in vivo, po, route oral GAVAGE, vehicle .5 % CMC; for ABSOLUTE BASOPHIL / ABSOLUTE EOSINOPHIL / ABSOLUTE LYMPHOCYTE / ABSOLUTE MONOCYTE / ABSOLUTE SEGMENTED NEUTROPHIL / BASOPHIL / EOSINOPHIL / ERYTHROCYTE COUNT / HEMATOCRIT / HEMOGLOBIN / LEUKOCYTE COUNT / LYMPHOCYTE / MEAN CORPUSCULAR HEMOGLOBIN / MEAN CORPUSCULAR HEMOGLOBIN CONCENTRATION / MEAN CORPUSCULAR VOLUME / MONOCYTE / NEUTROPHIL / NUCLEATED RED BLOOD CELLS / PLATELET COUNT: tissue Blood; for ALANINE AMINOTRANSFERASE / ALBUMIN / ALKALINE PHOSPHATASE / ASPARTATE AMINOTRANSFERASE / BLOOD UREA NITROGEN / CARBON DIOXIDE / CHLORIDE / CHOLESTEROL / CREATINE PHOSPHOKINASE / CREATININE / GLUCOSE / LACTATE DEHYDROGENASE / LIPASE / PHOSPHORUS / POTASSIUM / SODIUM / TOTAL BILIRUBIN / TOTAL PROTEIN / URIC ACID: tissue Plasma
[1] = 44 mg/kg, 120 h, dose level Low, time 5 day
[2] = 439 mg/kg, 72 h, dose level High, time 3 day
[3] = 439 mg/kg, 120 h, dose level High, time 5 day

Brc1ccccc1 [BROMOBENZENE]
ABSOLUTE BASOPHIL [1]: 0 CELLS/uL | ABSOLUTE EOSINOPHIL [1]: 0 CELLS/uL | ABSOLUTE LYMPHOCYTE [1]: 9552.67 CELLS/uL | ABSOLUTE MONOCYTE [1]: 143.67 CELLS/uL | ABSOLUTE SEGMENTED NEUTROPHIL [1]: 903.67 CELLS/uL | BASOPHIL [1]: 0% | EOSINOPHIL [1]: 0% | ERYTHROCYTE COUNT [1]: 5.33 x10E6/uL | HEMATOCRIT [1]: 32.83% | HEMOGLOBIN [1]: 12.7 G/DL | LEUKOCYTE COUNT [1]: 10.6 x10E3/uL | LYMPHOCYTE [1]: 90% | MEAN CORPUSCULAR HEMOGLOBIN [1]: 23.83 pg | MEAN CORPUSCULAR HEMOGLOBIN CONCENTRATION [1]: 38.7 G/DL | MEAN CORPUSCULAR VOLUME [1]: 61.57 fL | MONOCYTE [1]: 1.33% | NEUTROPHIL [1]: 8.67% | NUCLEATED RED BLOOD CELLS [1]: 0 /100WBC | PLATELET COUNT [1]: 1057.33 x10E3/uL | ALANINE AMINOTRANSFERASE [1]: 40.67 u/L | ALBUMIN [1]: 4.3 G/DL | ALKALINE PHOSPHATASE [1]: 334.67 u/L | ASPARTATE AMINOTRANSFERASE [1]: 69.67 u/L | BLOOD UREA NITROGEN [1]: 14.67 mg/dL | CARBON DIOXIDE [1]: 26.33 mmol/L | CHLORIDE [1]: 101.67 MEQ/L | CHOLESTEROL [1]: 64.33 mg/dL | CREATINE PHOSPHOKINASE [1]: 162.67 u/L | CREATININE [1]: 0.24 mg/dL | GLUCOSE [1]: 160 mg/dL | LACTATE DEHYDROGENASE [1]: 86.67 u/L | LIPASE [1]: 9.33 u/L | PHOSPHORUS [1]: 11.83 mg/dL | POTASSIUM [1]: 6.35 MEQ/L | SODIUM [1]: 144.7 MEQ/L | TOTAL BILIRUBIN [1]: 0.1 mg/dL | TOTAL PROTEIN [1]: 6.2 G/DL | URIC ACID [1]: 1.67 mg/dL | ABSOLUTE BASOPHIL [2]: 0 CELLS/uL | ABSOLUTE EOSINOPHIL [2]: 46.33 CELLS/uL | ABSOLUTE LYMPHOCYTE [2]: 10833.67 CELLS/uL | ABSOLUTE MONOCYTE [2]: 138 CELLS/uL | ABSOLUTE SEGMENTED NEUTROPHIL [2]: 1815.33 CELLS/uL | BASOPHIL [2]: 0% | EOSINOPHIL [2]: 0.33% | ERYTHROCYTE COUNT [2]: 4.81 x10E6/uL | HEMATOCRIT [2]: 30.27% | HEMOGLOBIN [2]: 11.9 G/DL | LEUKOCYTE COUNT [2]: 12.83 x10E3/uL | LYMPHOCYTE [2]: 85.33% | MEAN CORPUSCULAR HEMOGLOBIN [2]: 24.7 pg | MEAN CORPUSCULAR HEMOGLOBIN CONCENTRATION [2]: 39.3 G/DL | MEAN CORPUSCULAR VOLUME [2]: 62.83 fL | MONOCYTE [2]: 1% | NEUTROPHIL [2]: 13.33% | NUCLEATED RED BLOOD CELLS [2]: 0.33 /100WBC | PLATELET COUNT [2]: 1082.33 x10E3/uL | ALANINE AMINOTRANSFERASE [2]: 59 u/L | ALBUMIN [2]: 4.17 G/DL | ALKALINE PHOSPHATASE [2]: 378.33 u/L | ASPARTATE AMINOTRANSFERASE [2]: 83.67 u/L | BLOOD UREA NITROGEN [2]: 15 mg/dL | CARBON DIOXIDE [2]: 29.33 mmol/L | CHLORIDE [2]: 100.67 MEQ/L | CHOLESTEROL [2]: 84.67 mg/dL | CREATINE PHOSPHOKINASE [2]: 171 u/L | CREATININE [2]: 0.22 mg/dL | GLUCOSE [2]: 160 mg/dL | LACTATE DEHYDROGENASE [2]: 172 u/L | LIPASE [2]: 12 u/L | PHOSPHORUS [2]: 12.47 mg/dL | POTASSIUM [2]: 6.1 MEQ/L | SODIUM [2]: 143.47 MEQ/L | TOTAL BILIRUBIN [2]: 0.13 mg/dL | TOTAL PROTEIN [2]: 5.97 G/DL | URIC ACID [2]: 1.03 mg/dL | ABSOLUTE BASOPHIL [3]: 0 CELLS/uL | ABSOLUTE EOSINOPHIL [3]: 0 CELLS/uL | ABSOLUTE LYMPHOCYTE [3]: 9268 CELLS/uL | ABSOLUTE MONOCYTE [3]: 132.4 CELLS/uL | ABSOLUTE SEGMENTED NEUTROPHIL [3]: 919.6 CELLS/uL | BASOPHIL [3]: 0% | EOSINOPHIL [3]: 0% | ERYTHROCYTE COUNT [3]: 5.45 x10E6/uL | HEMATOCRIT [3]: 32.3% | HEMOGLOBIN [3]: 12.54 G/DL | LEUKOCYTE COUNT [3]: 10.32 x10E3/uL | LYMPHOCYTE [3]: 89.6% | MEAN CORPUSCULAR HEMOGLOBIN [3]: 23 pg | MEAN CORPUSCULAR HEMOGLOBIN CONCENTRATION [3]: 38.82 G/DL | MEAN CORPUSCULAR VOLUME [3]: 59.26 fL | MONOCYTE [3]: 1.2% | NEUTROPHIL [3]: 9.2% | NUCLEATED RED BLOOD CELLS [3]: 0.2 /100WBC | PLATELET COUNT [3]: 1078.8 x10E3/uL | ALANINE AMINOTRANSFERASE [3]: 43.2 u/L | ALBUMIN [3]: 4.4 G/DL | ALKALINE PHOSPHATASE [3]: 375.2 u/L | ASPARTATE AMINOTRANSFERASE [3]: 72.8 u/L | BLOOD UREA NITROGEN [3]: 16.2 mg/dL | CARBON DIOXIDE [3]: 25.2 mmol/L | CHLORIDE [3]: 102.4 MEQ/L | CHOLESTEROL [3]: 77.2 mg/dL | CREATINE PHOSPHOKINASE [3]: 262.4 u/L | CREATININE [3]: 0.2 mg/dL | GLUCOSE [3]: 153.6 mg/dL | LACTATE DEHYDROGENASE [3]: 118.8 u/L | LIPASE [3]: 9.6 u/L | PHOSPHORUS [3]: 12.5 mg/dL | POTASSIUM [3]: 6.84 MEQ/L | SODIUM [3]: 144.22 MEQ/L | TOTAL BILIRUBIN [3]: 0.18 mg/dL | TOTAL PROTEIN [3]: 6.18 G/DL | URIC ACID [3]: 1.92 mg/dL
